Earlier results as cited in publication PMC12715049 (Journal of Molecular Medicine (Berlin, Germany), 2025).

Tested on: mHTT aggregates
Details: read-out: IC50, binding to mHTT aggregates; radio-binding assays

For `COc1ccc(COc2ccc3oc(-c4ccc(=O)n(C)n4)nc3c2)nc1` [CHDI-180R], the IC50 is listed as 1.3 ± 1 nM.
